Data on 36 molecules can be found in PubChem BioAssay AID1195 (EPA DSSTox, 2008).

The data set deals with human maximum recommended daily dose, FDA database. Kind of data set: DSSTox (FDAMDD) FDA Maximum (Recommended) Daily Dose Database. To be noted: stronger effect = lower value. Summed up: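 MRDD values come from clinical trials with daily oral dosing, usually for 3–12 months, for the average adult, in mg/day converted to mg/kg-bw/day assuming 60 kg. Antineoplastic mg/m2 doses are divided by 37. Activity score maps log10(1/MRDD mmol) onto 1–100.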

Where [1] appears, read: TherapeuticCategory: anticonvulsant.
The mark [2] stands for this setting: TherapeuticCategory: antihistaminic.
Where [3] appears, read: TherapeuticCategory: antineoplastic.
Setting [4] is: TherapeuticCategory: antibacterial.
Where [5] appears, read: TherapeuticCategory: narcotic analgesic.

Starred links: 1 amine or outer side, 2 acyl side, 3 side chain; linkers in the order of their positions; H or OH if unused. Positions of bridges follow the written chain, without caps; N, C: chain ends. Non-standard residues stand in square brackets, D forms with d. Residues, ends and D or L forms follow the SMILES beside them. *: point of attachment. X1 = NC1=N[C@@H]([C@H](N[*:1])C(=O)[*:2])C[C@H](O)N1; ΔAla(Z-3-ureido) = NC(=O)N/C=C(\N)C(=O)O; β3hOrn = NCCC[C@H](N)CC(=O)*; Dap = NC[C@H](N)C(=O)O

`CCN(CC)C(=S)S`: the maximum recommended daily dose (mmol/kg-bw/day) (TherapeuticCategory: immunomodulator, chelating agent) is 0.0584.

Turning to `CCC(=O)c1ccc(O)cc1`, under “TherapeuticCategory: pituitary gonadotrophic hormone inhibitor”, the maximum recommended daily dose (mmol/kg-bw/day) is 0.333. Regarding `Cc1ccsc1C(=CCCN1CCC[C@@H](C(=O)O)C1)c1sccc1C`, the maximum recommended daily dose (mmol/kg-bw/day) under setting [1] was 0.00285.

For `CC[C@H](CC[C@@H](C)[C@H]1CC[C@H]2[C@@H]3CC=C4C[C@@H](O)CC[C@]4(C)[C@H]3CC[C@]12C)C(C)C`, the maximum recommended daily dose (mmol/kg-bw/day) (TherapeuticCategory: anticholinesteremic) was 0.241. With `O=C(O)c1ccccc1Nc1cccc(C(F)(F)F)c1`, the maximum recommended daily dose (mmol/kg-bw/day) (TherapeuticCategory: analgesic, anti inflammatory) is 0.0356.

Turning to `CN(CCCN1c2ccccc2CCc2ccccc21)CC(=O)c1ccc(Cl)cc1`, the maximum recommended daily dose (mmol/kg-bw/day) (TherapeuticCategory: antidepressant) is 0.00835. With `C=CCC1(CC(C)C)C(=O)NC(=O)NC1=O`, where the note is “TherapeuticCategory: sedative, hypnotic”, the maximum recommended daily dose (mmol/kg-bw/day) is 0.0223. `CN1CCC(=C2c3ccccc3CCc3sccc32)CC1`: the maximum recommended daily dose (mmol/kg-bw/day) (TherapeuticCategory: anabolic, antidepressant, serotonin inhibitor) was 0.000169.

For `O=C(O)CCCC[C@@H]1SC[C@@H]2NC(=O)N[C@@H]21`, where the note is “TherapeuticCategory: none”, the maximum recommended daily dose (mmol/kg-bw/day) was 1.36e-05. `Cc1ccc(C(=O)c2cc(O)c(O)c([N+](=O)[O-])c2)cc1`: for the setting “TherapeuticCategory: antidepressant, catechol-O-methyltransferase inhibitor”, the maximum recommended daily dose (mmol/kg-bw/day) is 0.0122. Consider `Clc1ccc(C/C(=C\CN2CCCC2)c2ccccc2)cc1`, for which, under setting [2], the maximum recommended daily dose (mmol/kg-bw/day) was 0.00481. For `N[C@@H](CCC(=O)N[C@@H](CS)C(=O)NCC(=O)O)C(=O)O`, the maximum recommended daily dose (mmol/kg-bw/day) (TherapeuticCategory: none) is 0.0163. Regarding `Clc1ccccc1CN1CCc2sccc2C1`, the maximum recommended daily dose (mmol/kg-bw/day) (TherapeuticCategory: platelet aggregation inhibitor) was 0.0158. As to `N=c1ccn2c(n1)O[C@H]1[C@H](O)[C@@H](CO)O[C@H]12`, the maximum recommended daily dose (mmol/kg-bw/day) under setting [3] is 0.0888. Turning to `CC(=O)Nc1ccc(/C=N/NC(N)=S)cc1`, under setting [4], the maximum recommended daily dose (mmol/kg-bw/day) is 0.0106.

For `NCCC[C@H](N)CC(=O)N[C@H]1CNC(=O)[C@H]([C@H]2C[C@H](O)NC(N)=N2)NC(=O)/C(=C/NC(N)=O)NC(=O)[C@H](CO)NC(=O)[C@H](CO)NC1=O` (β3hOrn-[Dap]SS[ΔAla(Z-3-ureido)][X1]; lactam 1-C), the maximum recommended daily dose (mmol/kg-bw/day) under setting [4] was 0.0973.

With `CN(C)CC/C=C1\c2ccccc2COc2ccc(CC(=O)O)cc21`, the maximum recommended daily dose (mmol/kg-bw/day) (TherapeuticCategory: antihistaminic, antiallergic) is 0.000987. Regarding `CC(N)Cc1ccccc1` (stereo unspecified), the maximum recommended daily dose (mmol/kg-bw/day) (TherapeuticCategory: CNS stimulant, anorexic) was 0.0074. On to `CCN(CC)CCc1nc(-c2ccccc2)no1`, for which, where the note is “TherapeuticCategory: anti inflammatory”, the maximum recommended daily dose (mmol/kg-bw/day) is 0.0136. In the case of `C[N+]1(C)CCCC(OC(=O)C(O)(c2ccccc2)c2ccccc2)C1` (stereo unspecified), the maximum recommended daily dose (mmol/kg-bw/day) (TherapeuticCategory: anticholinergic) was 0.00792. With `CCC(=O)C(CC(C)N(C)C)(c1ccccc1)c1ccccc1` (stereo unspecified), the maximum recommended daily dose (mmol/kg-bw/day) under setting [5] was 0.00162.

As to `CCOC(=O)[C@H](CCc1ccccc1)N[C@@H](C)C(=O)N1[C@H](C(=O)O)C[C@H]2CCCC[C@@H]21`, the maximum recommended daily dose (mmol/kg-bw/day) (TherapeuticCategory: antihypertensive) was 0.00124. On to `CC1(C)S[C@@H]2[C@H](NC(=O)[C@H](NC(=O)N3CCN(S(C)(=O)=O)C3=O)c3ccccc3)C(=O)N2[C@H]1C(=O)O`, for which the maximum recommended daily dose (mmol/kg-bw/day) under setting [4] was 0.495. In the case of `CC(=O)Oc1ccc(C(=C2CCCCC2)c2ccc(OC(C)=O)cc2)cc1`, the maximum recommended daily dose (mmol/kg-bw/day) (TherapeuticCategory: gonad stimulating) is 0.0183. Consider `CC(=O)N[C@@H](CS)C(=O)O`, for which the maximum recommended daily dose (mmol/kg-bw/day) (TherapeuticCategory: mucolytic, corneal vulnerary) was 0.0613. As for `CCC1(c2ccc(N)cc2)CCC(=O)NC1=O` (stereo unspecified), the maximum recommended daily dose (mmol/kg-bw/day) under setting [1] was 0.0719. Turning to `CC(C1=C(CCN(C)C)Cc2ccccc21)c1ccccn1` (stereo unspecified), the maximum recommended daily dose (mmol/kg-bw/day) under setting [2] was 0.000342.

Take `CN(C)CCOC1=Cc2ccccc2Sc2ccc(Cl)cc21`: the maximum recommended daily dose (mmol/kg-bw/day) (TherapeuticCategory: antipsychotic) is 0.0226. With `CCO`, the maximum recommended daily dose (mmol/kg-bw/day) (TherapeuticCategory: topical antiseptic) is 2.17. `CN1C(=O)NC(=O)C(C)(C2=CCCCC2)C1=O` (stereo unspecified): the maximum recommended daily dose (mmol/kg-bw/day) (TherapeuticCategory: sedative, hypnotic, anesthetic) was 0.0353.

For the molecule `O=C1CN2CCOC2(c2ccccc2F)c2cc(Cl)ccc2N1CCO` (stereo unspecified), under “TherapeuticCategory: anxiolytic”, the maximum recommended daily dose (mmol/kg-bw/day) is 0.000531.

For `CC(C)(Oc1ccc(C2CC2(Cl)Cl)cc1)C(=O)O` (stereo unspecified), the maximum recommended daily dose (mmol/kg-bw/day) (TherapeuticCategory: antihyperlipoproteinemic) is 0.00578. On to `Nc1ncnc2c1ncn2[C@@H]1O[C@H](COP(=O)(O)OP(=O)(O)OP(=O)(O)O)[C@@H](O)[C@H]1O`, for which, under “TherapeuticCategory: coenzyme”, the maximum recommended daily dose (mmol/kg-bw/day) is 0.000394. Take `C=C1C[C@@H]2[C@H](CC[C@]3(C)C(=O)CC[C@@H]23)[C@@]2(C)C=CC(=O)C=C12`: the maximum recommended daily dose (mmol/kg-bw/day) under setting [3] was 0.00135. Regarding `C(=C\c1ccccc1)/CN1CCN(C(c2ccccc2)c2ccccc2)CC1`, the maximum recommended daily dose (mmol/kg-bw/day) (TherapeuticCategory: antihistaminic, peripheral vasodilator) was 0.0102. In the case of `COC12CC[C@@]3(C[C@@H]1[C@](C)(O)C(C)(C)C)[C@H]1Cc4ccc(O)c5c4[C@@]3(CCN1CC1CC1)[C@H]2O5`, the maximum recommended daily dose (mmol/kg-bw/day) under setting [5] was 0.00114.
